Assay: relative permittivity at zero frequency (dimensionless); xn = mol fraction of the nth substance listed
Details: 101 kPa, Liquid

CCC[N+](=O)[O-] [1-nitropropane] + C1CCCCC1
298.15 K, two-cell dielectric cell
Details | relative permittivity at zero frequency
x1 = 0.003184 | 2.05488
x1 = 0.006527 | 2.09539
x1 = 0.01302 | 2.1734
x1 = 0.01942 | 2.24959
x1 = 0.02574 | 2.3244
x1 = 0.02693 | 2.33815
x1 = 0.02818 | 2.3525
x1 = 0.03015 | 2.37603
x1 = 0.03648 | 2.4508
x1 = 0.04272 | 2.52479
x1 = 0.04887 | 2.59808
x1 = 0.05327 | 2.64994
x1 = 0.05626 | 2.68544
x1 = 0.0594 | 2.72327
x1 = 0.06549 | 2.79734
x1 = 0.07152 | 2.87045
x1 = 0.07893 | 2.96124

CCC[N+](=O)[O-] [1-nitropropane] + Cc1ccc(C)cc1
298.15 K, two-cell dielectric cell
Details | relative permittivity at zero frequency
x1 = 0.005128 | 2.31627
x1 = 0.007441 | 2.34224
x1 = 0.01482 | 2.4248
x1 = 0.0221 | 2.50652
x1 = 0.02927 | 2.58754
x1 = 0.03246 | 2.62349
x1 = 0.03388 | 2.63942
x1 = 0.03604 | 2.66416
x1 = 0.03819 | 2.68861
x1 = 0.04527 | 2.77022
x1 = 0.05226 | 2.85114
x1 = 0.05913 | 2.93159

CCC[N+](=O)[O-] [1-nitropropane] + ClC(Cl)(Cl)Cl
298.15 K, two-cell dielectric cell
Details | relative permittivity at zero frequency
x1 = 0.002869 | 2.27091
x1 = 0.005861 | 2.3147
x1 = 0.01167 | 2.39918
x1 = 0.01742 | 2.48214
x1 = 0.0231 | 2.56405
x1 = 0.0253 | 2.59588
x1 = 0.02987 | 2.66163
x1 = 0.03553 | 2.74365
x1 = 0.04122 | 2.82491
x1 = 0.04993 | 2.95383
x1 = 0.05263 | 2.99295
x1 = 0.05816 | 3.07483
x1 = 0.06363 | 3.15625

CC(C)[N+](=O)[O-] [2-nitropropane] + C1CCCCC1
298.15 K, two-terminal dielectric cell
Details | relative permittivity at zero frequency
x1 = 0.001188 | 2.0322
x1 = 0.003139 | 2.0568
x1 = 0.006442 | 2.09876
x1 = 0.009592 | 2.13855
x1 = 0.01286 | 2.18001
x1 = 0.01918 | 2.26067
x1 = 0.02225 | 2.29974
x1 = 0.0266 | 2.35434
x1 = 0.031 | 2.41041
x1 = 0.03475 | 2.45922
x1 = 0.04093 | 2.54037
x1 = 0.04703 | 2.62139
x1 = 0.05035 | 2.66577
x1 = 0.05259 | 2.69578
x1 = 0.05527 | 2.7322
x1 = 0.05838 | 2.77444
x1 = 0.06441 | 2.857
x1 = 0.07038 | 2.93937

CC(C)[N+](=O)[O-] [2-nitropropane] + CC(C)C(C)C
298.15 K, two-terminal dielectric cell
Details | relative permittivity at zero frequency
x1 = 0.003786 | 1.92648
x1 = 0.007756 | 1.96704
x1 = 0.01545 | 2.04621
x1 = 0.02302 | 2.12477
x1 = 0.03047 | 2.20279
x1 = 0.03298 | 2.22897
x1 = 0.03446 | 2.24427
x1 = 0.03679 | 2.26913
x1 = 0.04419 | 2.34842
x1 = 0.0515 | 2.42769
x1 = 0.05867 | 2.50669
x1 = 0.06479 | 2.5748
x1 = 0.06604 | 2.58924
x1 = 0.06819 | 2.61329
x1 = 0.07183 | 2.65458
x1 = 0.07889 | 2.73569
x1 = 0.08584 | 2.81657
x1 = 0.09268 | 2.89729

CC(C)[N+](=O)[O-] [2-nitropropane] + Cc1ccc(C)cc1
298.15 K, two-terminal dielectric cell
Details | relative permittivity at zero frequency
x1 = 0.005471 | 2.32313
x1 = 0.007307 | 2.34454
x1 = 0.01457 | 2.42922
x1 = 0.02174 | 2.51328
x1 = 0.02879 | 2.59677
x1 = 0.03194 | 2.63439
x1 = 0.03336 | 2.65058
x1 = 0.03555 | 2.67711
x1 = 0.04256 | 2.76165
x1 = 0.04948 | 2.84581
x1 = 0.05628 | 2.92956
x1 = 0.06235 | 3.00461

CC(C)[N+](=O)[O-] [2-nitropropane] + ClC(Cl)(Cl)Cl
298.15 K, two-terminal dielectric cell
Details | relative permittivity at zero frequency
x1 = 0.001006 | 2.24531
x1 = 0.002745 | 2.27181
x1 = 0.00569 | 2.31696
x1 = 0.01141 | 2.40482
x1 = 0.01707 | 2.49201
x1 = 0.02266 | 2.57869
x1 = 0.02488 | 2.61322
x1 = 0.02599 | 2.62967
x1 = 0.02803 | 2.6614
x1 = 0.03078 | 2.70432
x1 = 0.03634 | 2.79196
x1 = 0.04183 | 2.87937
x1 = 0.04726 | 2.9666

CC[N+](=O)[O-] [nitroethane] + C1CCCCC1
298.15 K, two-terminal dielectric cell
Details | relative permittivity at zero frequency
x1 = 0.003987 | 2.0631
x1 = 0.008153 | 2.11122
x1 = 0.01622 | 2.20858
x1 = 0.02416 | 2.2932
x1 = 0.03312 | 2.3893
x1 = 0.0371 | 2.43784
x1 = 0.04487 | 2.5254
x1 = 0.05252 | 2.6119
x1 = 0.06004 | 2.69759
x1 = 0.06369 | 2.73934

CC[N+](=O)[O-] [nitroethane] + Cc1ccc(C)cc1
298.15 K, two-terminal dielectric cell
Details | relative permittivity at zero frequency
x1 = 0.001685 | 2.2782
x1 = 0.009202 | 2.35917
x1 = 0.01833 | 2.45822
x1 = 0.02729 | 2.55599
x1 = 0.03608 | 2.65295
x1 = 0.04032 | 2.69936
x1 = 0.05043 | 2.81296
x1 = 0.05899 | 2.91009
x1 = 0.0674 | 3.00647
x1 = 0.07566 | 3.10223

CC[N+](=O)[O-] [nitroethane] + ClC(Cl)(Cl)Cl
298.15 K, two-terminal dielectric cell
Details | relative permittivity at zero frequency
x1 = 0.003529 | 2.27902
x1 = 0.00724 | 2.3313
x1 = 0.01443 | 2.4321
x1 = 0.02153 | 2.53048
x1 = 0.02851 | 2.62767
x1 = 0.0311 | 2.6639
x1 = 0.03397 | 2.7038
x1 = 0.04093 | 2.80121
x1 = 0.04779 | 2.89785
x1 = 0.05456 | 2.9938

C[N+](=O)[O-] [nitromethane] + c1ccccc1
two-terminal dielectric cell
Details | relative permittivity at zero frequency
298.15 K, x1 = 0.000817 | 2.28834
298.15 K, x1 = 0.001228 | 2.294
298.15 K, x1 = 0.001638 | 2.29956
298.15 K, x1 = 0.002045 | 2.30518
298.15 K, x1 = 0.00245 | 2.31071
298.15 K, x1 = 0.003332 | 2.32281
298.15 K, x1 = 0.003559 | 2.32593
298.15 K, x1 = 0.004459 | 2.33824
298.15 K, x1 = 0.005656 | 2.35464
298.15 K, x1 = 0.006833 | 2.37085
298.15 K, x1 = 0.007322 | 2.37753
298.15 K, x1 = 0.007982 | 2.38639
298.15 K, x1 = 0.01242 | 2.44757
298.15 K, x1 = 0.01595 | 2.49623
298.15 K, x1 = 0.02031 | 2.55663
298.15 K, x1 = 0.02465 | 2.61628
298.15 K, x1 = 0.0332 | 2.7354
298.15 K, x1 = 0.04458 | 2.89495
298.15 K, x1 = 0.05494 | 3.03914
298.15 K, x1 = 0.06641 | 3.20367
298.15 K, x1 = 0.08012 | 3.40373
318.15 K, x1 = 0.000437 | 2.19342
318.15 K, x1 = 0.0008868 | 2.19856
318.15 K, x1 = 0.001333 | 2.20368
318.15 K, x1 = 0.001778 | 2.20876
318.15 K, x1 = 0.002219 | 2.21383
318.15 K, x1 = 0.002658 | 2.2188
318.15 K, x1 = 0.003857 | 2.23245
318.15 K, x1 = 0.004835 | 2.24352
318.15 K, x1 = 0.006131 | 2.25821
318.15 K, x1 = 0.007631 | 2.27516
318.15 K, x1 = 0.009325 | 2.29411
318.15 K, x1 = 0.01132 | 2.31664
318.15 K, x1 = 0.01305 | 2.33622
318.15 K, x1 = 0.0149 | 2.35704
318.15 K, x1 = 0.01628 | 2.37368
318.15 K, x1 = 0.02047 | 2.42114
318.15 K, x1 = 0.02519 | 2.47484
318.15 K, x1 = 0.03005 | 2.53001
318.15 K, x1 = 0.0345 | 2.58032
318.15 K, x1 = 0.04273 | 2.67386
318.15 K, x1 = 0.05416 | 2.80502
318.15 K, x1 = 0.06683 | 2.9527
318.15 K, x1 = 0.07816 | 3.08644
318.15 K, x1 = 0.09171 | 3.24999

ClC(Cl)(Cl)Cl [tetrachloromethane] + C[N+](=O)[O-]
two-terminal dielectric cell
Details | relative permittivity at zero frequency
298.15 K, x2 = 0.00098 | 2.24081
298.15 K, x2 = 0.001471 | 2.24714
298.15 K, x2 = 0.001979 | 2.25361
298.15 K, x2 = 0.002444 | 2.25959
298.15 K, x2 = 0.002927 | 2.26574
298.15 K, x2 = 0.003884 | 2.27791
298.15 K, x2 = 0.004245 | 2.28249
298.15 K, x2 = 0.00484 | 2.29002
298.15 K, x2 = 0.005797 | 2.30213
298.15 K, x2 = 0.006743 | 2.31404
298.15 K, x2 = 0.007679 | 2.32583
298.15 K, x2 = 0.008374 | 2.33457
298.15 K, x2 = 0.01041 | 2.35982
298.15 K, x2 = 0.01242 | 2.38483
298.15 K, x2 = 0.01439 | 2.40939
298.15 K, x2 = 0.01577 | 2.42642
298.15 K, x2 = 0.01737 | 2.44616
298.15 K, x2 = 0.01871 | 2.46233
298.15 K, x2 = 0.02204 | 2.50367
298.15 K, x2 = 0.02674 | 2.56122
298.15 K, x2 = 0.03418 | 2.65322
298.15 K, x2 = 0.04333 | 2.76524
298.15 K, x2 = 0.0523 | 2.87591
298.15 K, x2 = 0.0567 | 2.92988
318.15 K, x2 = 0.000162 | 2.23812
318.15 K, x2 = 0.000418 | 2.24125
318.15 K, x2 = 0.0008265 | 2.24641
318.15 K, x2 = 0.001238 | 2.25158
318.15 K, x2 = 0.001648 | 2.25667
318.15 K, x2 = 0.002055 | 2.26176
318.15 K, x2 = 0.00246 | 2.26679
318.15 K, x2 = 0.003263 | 2.2768
318.15 K, x2 = 0.003558 | 2.28051
318.15 K, x2 = 0.004468 | 2.29186
318.15 K, x2 = 0.005663 | 2.30678
318.15 K, x2 = 0.007033 | 2.3239
318.15 K, x2 = 0.007748 | 2.33263
318.15 K, x2 = 0.009707 | 2.35737
318.15 K, x2 = 0.0113 | 2.37756
318.15 K, x2 = 0.01572 | 2.4327
318.15 K, x2 = 0.02009 | 2.48822
318.15 K, x2 = 0.02486 | 2.54795
318.15 K, x2 = 0.02873 | 2.59732
318.15 K, x2 = 0.03299 | 2.65111
318.15 K, x2 = 0.0414 | 2.75865
318.15 K, x2 = 0.04472 | 2.80151
318.15 K, x2 = 0.054 | 2.91886
318.15 K, x2 = 0.06623 | 3.07885
318.15 K, x2 = 0.07426 | 3.18574
318.15 K, x2 = 0.08027 | 3.26614
